{
  "source": "patent US8952157B2",
  "about": "“Apoptosis-inducing agents for the treatment of cancer and immune and autoimmune diseases” (AbbVie Inc., priority 2008, dated 2015)",
  "molecular_target": "GST-Bcl-2 (Homo sapiens (Human), UniProt P10415)",
  "sequence (P10415 whole entry)": "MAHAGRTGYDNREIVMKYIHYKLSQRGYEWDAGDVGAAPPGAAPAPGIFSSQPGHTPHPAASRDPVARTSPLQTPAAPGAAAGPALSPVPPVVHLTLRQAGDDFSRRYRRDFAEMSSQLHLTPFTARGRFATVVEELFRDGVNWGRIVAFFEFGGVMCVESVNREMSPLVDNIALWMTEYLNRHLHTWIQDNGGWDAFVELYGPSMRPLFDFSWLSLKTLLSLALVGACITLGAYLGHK",
  "assay": "Time Resolved-Fluorescence Resonance Energy Transfer (TR-FRET) Bcl-2 binding assay",
  "how_it_was_run": "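Ki values derived from TR-FRET displacement of F-Bak peptide from GST-Bcl-2, detected with Tb-labelled anti-GST antibody (ex 340, em 520/495 nm). Compound dilution series started at 50 μM (2× starting concentration); room-temperature incubation 3 hours.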",
  "key": {"[1]": {"settings": "GST-Bcl-2 1 nM, F-Bak peptide probe 100 nM, Tb-anti-GST antibody 1 nM, Ki by Wang's equation"}},
  "note": "pKi: −log10 of the molar value. Where two headings read alike, the source gives them in different places.",
  "data": [
    {"smiles": "CC1(C)CCC(CN2CCN(c3ccc(C(=O)NS(=O)(=O)c4ccc(N[C@H]5CC[C@H](NC6CCOCC6)CC5)c([N+](=O)[O-])c4)c(Oc4cc5cc[nH]c5cc4F)c3)CC2)=C(c2ccc(Cl)cc2)C1", "note": "[Example 335, Trans-4-(4-{[2-(4-chlorophenyl)-4,4-dimethylcyclohex-1-en-1-yl]methyl}piperazin-1-yl)-2-[(6-fluoro-1H-indol-5-yl)oxy]-N-[(3-nitro-4-{[4-(tetrahydro-2H-pyran-4-ylamino)cyclohexyl]amino}phenyl)sulfonyl]benzamide]", "values": [
      {"measurement": "pKi", "value": "> 11.00"}
    ]},
    {"smiles": "CC1(C)CCC(CN2CCN(c3ccc(C(=O)NS(=O)(=O)c4ccc(N[C@H]5CC[C@H](N6CCN(C7CCOCC7)CC6)CC5)c([N+](=O)[O-])c4)c(Oc4cc5cc[nH]c5cc4F)c3)CC2)=C(c2ccc(Cl)cc2)C1", "note": "[Example 336, Trans-4-(4-{[2-(4-chlorophenyl)-4,4-dimethylcyclohex-1-en-1-yl]methyl}piperazin-1-yl)-2-[(6-fluoro-1H-indol-5-yl)oxy]-N-[(3-nitro-4-{[4-(4-tetrahydro-2H-pyran-4-ylpiperazin-1-yl)cyclohexyl]amino}phenyl)sulfonyl]benzamide]", "values": [
      {"measurement": "pKi", "value": "> 11.00"}
    ]},
    {"smiles": "CC1(C)CCC(CN2CCN(c3ccc(C(=O)NS(=O)(=O)c4ccc(NCC5(F)CCOCC5)c([N+](=O)[O-])c4)c(Oc4cc5cc[nH]c5cc4F)c3)CC2)=C(c2ccc(Cl)cc2)C1", "note": "[Example 337, 4-(4-{[2-(4-chlorophenyl)-4,4-dimethylcyclohex-1-en-1-yl]methyl}piperazin-1-yl)-2-[(6-fluoro-1H-indol-5-yl)oxy]-N-[(4-{[(4-fluorotetrahydro-2H-pyran-4-yl)methyl]amino}-3-nitrophenyl)sulfonyl]benzamide]", "values": [
      {"measurement": "pKi", "setting": "[1]", "value": 10.31}
    ]},
    {"smiles": "CC1(C)CCC(CN2CCN(c3ccc(C(=O)NS(=O)(=O)c4ccc(NC[C@H]5CC[C@H](O)CC5)c([N+](=O)[O-])c4)c(Oc4cc5cc[nH]c5cc4F)c3)CC2)=C(c2ccc(Cl)cc2)C1", "note": "[Example 338, Trans-4-(4-{[2-(4-chlorophenyl)-4,4-dimethylcyclohex-1-en-1-yl]methyl}piperazin-1-yl)-2-[(6-fluoro-1H-indol-5-yl)oxy]-N-[(4-{[(4-hydroxycyclohexyl)methyl]amino}-3-nitrophenyl)sulfonyl]benzamide]", "values": [
      {"measurement": "pKi", "value": "> 11.00"}
    ]},
    {"smiles": "CN(C)CCCc1c[nH]c2cccc(Oc3cc(N4CCN(CC5=C(c6ccc(Cl)cc6)CC(C)(C)CC5)CC4)ccc3C(=O)NS(=O)(=O)c3ccc(NCC4CCOCC4)c([N+](=O)[O-])c3)c12", "note": "[Example 339, 4-(4-{[2-(4-chlorophenyl)-4,4-dimethylcyclohex-1-en-1-yl]methyl}piperazin-1-yl)-2-({3-[3-(dimethylamino)propyl]-1H-indol-4-yl}oxy)-N-({3-nitro-4-[(tetrahydro-2H-pyran-4-ylmethyl)amino]phenyl}sulfonyl)benzamide]", "values": [
      {"measurement": "pKi", "setting": "[1]", "value": 10.24}
    ]},
    {"smiles": "CN(C)CCCc1c[nH]c2cccc(Oc3cc(N4CCN(CC5=C(c6ccc(Cl)cc6)CC(C)(C)CC5)CC4)ccc3C(=O)NS(=O)(=O)c3ccc(NN4CCN(C)CC4)c([N+](=O)[O-])c3)c12", "note": "[Example 340, 4-(4-{[2-(4-chlorophenyl)-4,4-dimethylcyclohex-1-en-1-yl]methyl}piperazin-1-yl)-2-({3-[3-(dimethylamino)propyl]-1H-indol-4-yl}oxy)-N-({4-[(4-methylpiperazin-1-yl)amino]-3-nitrophenyl}sulfonyl)benzamide]", "values": [
      {"measurement": "pKi", "setting": "[1]", "value": 9.41}
    ]},
    {"smiles": "CC1(C)CCC(CN2CCN(c3ccc(C(=O)NS(=O)(=O)c4ccc(OCC5(F)CCN(C6CC6)CC5)c([N+](=O)[O-])c4)c(Oc4cc5cc[nH]c5cc4F)c3)CC2)=C(c2ccc(Cl)cc2)C1", "note": "[Example 341, 4-(4-{[2-(4-chlorophenyl)-4,4-dimethylcyclohex-1-en-1-yl]methyl}piperazin-1-yl)-N-({4-[(1-cyclopropyl-4-fluoropiperidin-4-yl)methoxy]-3-nitrophenyl}sulfonyl)-2-[(6-fluoro-1H-indol-5-yl)oxy]benzamide]", "values": [
      {"measurement": "pKi", "setting": "[1]", "value": 10.77}
    ]},
    {"smiles": "COc1ccc(Cn2nnc3c(Oc4cc(N5CCN(CC6=C(c7ccc(Cl)cc7)CC(C)(C)CC6)CC5)ccc4C(=O)NS(=O)(=O)c4ccc(NCC5CCOCC5)c([N+](=O)[O-])c4)cccc32)cc1", "note": "[Example 342, 4-(4-{[2-(4-chlorophenyl)-4,4-dimethylcyclohex-1-en-1-yl]methyl}piperazin-1-yl)-2-{[1-(4-methoxybenzyl)-1H-1,2,3-benzotriazol-4-yl]oxy}-N-({3-nitro-4-[(tetrahydro-2H-pyran-4-ylmethyl)amino]phenyl}sulfonyl)benzamide]", "values": [
      {"measurement": "pKi", "setting": "[1]", "value": 8.48}
    ]},
    {"smiles": "CN1CCN(Nc2ccc(S(=O)(=O)NC(=O)c3ccc(N4CCN(CC5=C(c6ccc(Cl)cc6)CC(C)(C)CC5)CC4)cc3Oc3cnc(N)c(Cl)c3)cc2[N+](=O)[O-])CC1", "note": "[Example 343, 2-[(6-amino-5-chloropyridin-3-yl)oxy]-4-(4-{[2-(4-chlorophenyl)-4,4-dimethylcyclohex-1-en-1-yl]methyl}piperazin-1-yl)-N-({4-[(4-methylpiperazin-1-yl)amino]-3-nitrophenyl}sulfonyl)benzamide]", "values": [
      {"measurement": "pKi", "setting": "[1]", "value": 11.05}
    ]},
    {"smiles": "CC1(C)CCC(CN2CCN(c3ccc(C(=O)NS(=O)(=O)c4ccc(NCC5COCCO5)c([N+](=O)[O-])c4)c(Oc4cnc(N)c(Cl)c4)c3)CC2)=C(c2ccc(Cl)cc2)C1", "note": "(stereo not shown) [Example 346, 2-[(6-amino-5-chloropyridin-3-yl)oxy]-4-(4-{[2-(4-chlorophenyl)-4,4-dimethylcyclohex-1-en-1-yl]methyl}piperazin-1-yl)-N-({4-[(1,4-dioxan-2-ylmethyl)amino]-3-nitrophenyl}sulfonyl)benzamide]", "values": [
      {"measurement": "pKi", "setting": "[1]", "value": "> 11.00"}
    ]},
    {"smiles": "CC1(C)CCC(CN2CCN(c3ccc(C(=O)NS(=O)(=O)c4ccc(NCCCN5CCOCC5)c(S(=O)(=O)C(F)(F)F)c4)c(Oc4cnc(N)c(Cl)c4)c3)CC2)=C(c2ccc(Cl)cc2)C1", "note": "[Example 347, 2-[(6-amino-5-chloropyridin-3-yl)oxy]-4-(4-{[2-(4-chlorophenyl)-4,4-dimethylcyclohex-1-en-1-yl]methyl}piperazin-1-yl)-N-({4-[(3-morpholin-4-ylpropyl)amino]-3-[(trifluoromethyl)sulfonyl]phenyl}sulfonyl)benzamide]", "values": [
      {"measurement": "pKi", "setting": "[1]", "value": 9.42}
    ]},
    {"smiles": "CC1(C)CCC(CN2CCN(c3ccc(C(=O)NS(=O)(=O)c4ccc(OCC5(F)CCOCC5)c(S(=O)(=O)C(F)(F)F)c4)c(Oc4cnc(N)c(Cl)c4)c3)CC2)=C(c2ccc(Cl)cc2)C1", "note": "[Example 348, 2-[(6-amino-5-chloropyridin-3-yl)oxy]-4-(4-{[2-(4-chlorophenyl)-4,4-dimethylcyclohex-1-en-1-yl]methyl}piperazin-1-yl)-N-({4-[(4-fluorotetrahydro-2H-pyran-4-yl)methoxy]-3-[(trifluoromethyl)sulfonyl]phenyl}sulfonyl)benzamide]", "values": [
      {"measurement": "pKi", "setting": "[1]", "value": 8.42}
    ]},
    {"smiles": "CC1(C)CCC(CN2CCN(c3ccc(C(=O)NS(=O)(=O)c4cnc(OCC5(F)CCOCC5)c(Cl)c4)c(Oc4cnc(N)c(Cl)c4)c3)CC2)=C(c2ccc(Cl)cc2)C1", "note": "[Example 349, 2-[(6-amino-5-chloropyridin-3-yl)oxy]-N-({5-chloro-6-[(4-fluorotetrahydro-2H-pyran-4-yl)methoxy]pyridin-3-yl}sulfonyl)-4-(4-{[2-(4-chlorophenyl)-4,4-dimethylcyclohex-1-en-1-yl]methyl}piperazin-1-yl)benzamide]", "values": [
      {"measurement": "pKi", "setting": "[1]", "value": 10.72}
    ]}
  ]
}
